# Columns and labels:
# [1] = test system: Mice; test: Mouse Forced Swim Test; format: in vivo
# Protocol: Protocol: Animals were maintained on a 12:12 LD cycle with lights on at 0600 h. Mice were placed into the testing room at least 1 h prior to the start of the test. Vehicle, amitriptyline and MA-1 were administered under one of three conditions: A) acute treatment, animals dosed 30 minutes prior to testing; B) 4 day subchronic AM treatment, with dosing occurring during the early morning period (0900-1100 h), with the final dose occurring 30 min prior to testing; and C) subchronic PM treatment with dosing occurring during the evening period (1730-1800 h, right before lights off), and the forced swim test took place the following morning. Animals were tested in the forced swim test using a modification of the protocol originally described by Porsolt et al. (1978). Mice were placed into 1 L beakers (KIMAX #14005) filled with 800 ml of water (20-22° C.) for a 7 min swim period. Animals were only scored for the last 5 minutes of the test and were assigned either a “0” if they were actively swimming or “1” if they were immobile, except for small movements needed to keep afloat. During the 5 minute scoring period, there are ten 30 sec intervals scored for a total possible score of 0-10 for each mouse. Data was reported as median (interquartile range). Each study was run independently with separate groups of naive mice. Data were analyzed using Statview (SAS, Cary, N.C.) with a Kruskal-Wallis analysis, followed by Mann-Whitney U-test with the significance level set at p<0.05.
# [2] = test system: Rats; test: Rat Forced Swim Test (behavioral despair test); format: in vivo; conditions: for decrease in immobility time: dark phase
# Protocol: Protocol: Animals were tested in the forced swim test using the protocol originally described by Porsolt et al (Eur. J. Pharmacol., 47, 379-391,1978). Rats were individually placed in a cylinder (Height=40 cm, Diameter=20 cm) containing 13 cm water (25° C.) for 15 minutes on the first day of the experiment (Session 1) and were then put back in the water 24 hours later for a 5 minute test (Session 2). The duration of immobility during the 5 minute test was measured. Six rats were studied per group. The test was performed blind. Session 1 and Session 2 were performed either during the light cycle, i.e. between 2.5 and 5.5 hours after lights-on, or during the dark cycle, i.e. between 2.5 and 5.5 hours after lights-off. The tests during the light cycle were therefore performed between 9:30 am and 12:30 pm, whereas the tests during the dark cycle, because of the light cycle shift, were performed between 14:30 pm and 17:30 pm.
# To permit the 2 phases of the experiment (light phase and dark phase) to be performed on the same day by the same laboratory technician, the animals to be tested during the dark phase were submitted to a light cycle shift 12 days prior to the first session of the forced swim test whereby the light/dark cycle was advanced 7 hours (lights-on: 0:00 am, lights-off: 12:00 pm). The 12-day period was estimated to be sufficient for the dark-cycle animals to adjust to the shift. To habituate the rats to the light cycle shift, the dark-cycle animals were submitted to the shift 12 days prior to Session 1. To ensure otherwise similar conditions between the light-cycle and dark-cycle animals, all animals to be used in the experiment were from the same delivery batch and were placed in their experimental living cages at the same time, i.e. 12 days before Session 1.
# Testing during the light phase was performed under normal laboratory illumination, and testing during the dark phase was performed under infrared illumination. MA-1, agomelatine, and melatonin were evaluated at 2 oral (p.o.) doses each, administered twice (24 hours and 1 hour before Session 2). The first administration was given immediately after Session 1. Imipramine (64 mg/kg p.o.), administered twice under the same experimental conditions, was used as reference substance.
# [3] = test system: cerebellar cGMP; test: Stress-induced cerebellar cGMP elevation; format: in vivo, Rats; conditions: for activity in the stress-induced cGMP assay: data not shown, levels similar to what was observed for MA-1
# Protocol: Protocol: Animals were placed into a shock chamber with a steel grid floor and shocked at 1 mA for 10 seconds. One minute following the stressor, the animals were placed into a plastic restraint tube and sacrificed by microwave irradiation (1.8 sec at 3.5 kW). The cerebellum was rapidly removed, snap frozen, and stored at −80° C. prior to the cGMP assay. Non-stressed animals were taken directly from their cages and sacrificed by microwave irradiation and tissues were processed in a similar manner. Drug dosing was performed 30-60 min prior to foot-shock stress. For the cGMP assay, the tissue was homogenized in 2 ml of 1% perchloric acid using a Brinkman Polytron at setting #5 for ˜15 sec each and placed on ice until all samples were homogenized. Samples were then placed in an 85C water bath for 5 min, centrifuged at 2500G for 15 min, and ˜0.5 ml of the supernatant was collected for analysis. Supernatants were diluted 1:20 in sodium acetate buffer according to the directions of the manufacturer of the 1251-cGMP flashplates. Diluted samples were incubated overnight in flashplate wells with 1251-cGMP, assayed on a gamma-counter plate reader, and converted to pmol cGMP/mg tissue using a standard curve generated in the same experiment.
# [4] = test system: Rats; test: Modified forced swim test in rats (study not reported); format: in vivo, rat; conditions: 5 mg/kg and 10 mg/kg
# [5] = Solubility of MA-1; format: physicochemical
# [6] = target: Melatonin-1 (MT1) receptor (Homo sapiens, UniProt P48039); conditions: cited from earlier work
# Melatonin-1 (MT1) receptor, sequence (P48039 whole entry): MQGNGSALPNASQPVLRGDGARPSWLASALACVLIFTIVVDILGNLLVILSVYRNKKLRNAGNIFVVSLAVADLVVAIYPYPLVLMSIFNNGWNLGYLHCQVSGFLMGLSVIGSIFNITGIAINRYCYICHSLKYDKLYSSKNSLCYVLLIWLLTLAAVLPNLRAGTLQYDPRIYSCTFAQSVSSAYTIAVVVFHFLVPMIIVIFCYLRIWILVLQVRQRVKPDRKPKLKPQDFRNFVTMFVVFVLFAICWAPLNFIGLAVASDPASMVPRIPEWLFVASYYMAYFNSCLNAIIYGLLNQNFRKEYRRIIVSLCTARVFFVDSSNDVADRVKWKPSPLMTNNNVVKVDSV
# [7] = target: T1, Melatonin-2 (MT2) receptor (Homo sapiens, UniProt P49286); conditions: cited from earlier work
# T1 sequence (P49286 1-362): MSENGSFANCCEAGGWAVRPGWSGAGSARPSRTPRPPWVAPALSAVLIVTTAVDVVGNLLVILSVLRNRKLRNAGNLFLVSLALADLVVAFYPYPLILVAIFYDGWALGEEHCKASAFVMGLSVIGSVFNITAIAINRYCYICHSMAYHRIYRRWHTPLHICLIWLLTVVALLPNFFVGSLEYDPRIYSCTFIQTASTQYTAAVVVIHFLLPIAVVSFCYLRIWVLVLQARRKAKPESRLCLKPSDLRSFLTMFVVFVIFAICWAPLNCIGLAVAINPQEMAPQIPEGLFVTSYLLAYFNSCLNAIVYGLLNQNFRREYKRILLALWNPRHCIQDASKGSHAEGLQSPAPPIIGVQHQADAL
# [8] = condition A: acute treatment, testing 30 minute post-dose
# [9] = condition B: 4-day sub-chronic AM dosing, testing 30 minutes following final dose
# [10] = condition C: 4-day sub-chronic PM dosing, testing the following morning
# [11] = dark cycle, 64 mg/kg p.o. −24 h and −60 min
# [12] = light cycle, 64 mg/kg p.o. −24 h and −60 min
# [13] = dark cycle, 1 mg/kg p.o. −24 h and −60 min
# [14] = dark cycle, 10 mg/kg p.o. −24 h and −60 min
# [15] = light cycle, 1 mg/kg p.o. −24 h and −60 min
# [16] = light cycle, 10 mg/kg p.o. −24 h and −60 min
# [17] = dark cycle, 50 mg/kg p.o. −24 h and −60 min
# [18] = light cycle, 50 mg/kg p.o. −24 h and −60 min
SMILES,"activity in mouse forced swim model [1, 8]","activity in mouse forced swim model [1, 9]","activity in mouse forced swim model [1, 10]","DURATION OF IMMOBILITY % change from control [2, 14]","DURATION OF IMMOBILITY mean ± s.e.m. [2, 14]",decrease in immobility time ([2]; 10 mg/kg),"DURATION OF IMMOBILITY % change from control [2, 16]","DURATION OF IMMOBILITY mean ± s.e.m. [2, 16]",activity in the stress-induced cGMP assay [3],"DURATION OF IMMOBILITY % change from control [2, 17]","DURATION OF IMMOBILITY mean ± s.e.m. [2, 17]","DURATION OF IMMOBILITY % change from control [2, 18]","DURATION OF IMMOBILITY mean ± s.e.m. [2, 18]",also measured
CN(C)CCC=C1c2ccccc2CCc2ccccc21 [Amitriptyline],active,active,did not show activity,–,–,–,–,–,–,–,–,–,–,–
CN(C)CCCN1c2ccccc2CCc2ccccc21 [Imipramine],–,–,–,–,–,–,–,–,–,–,–,–,–,"DURATION OF IMMOBILITY % change from control [2, 11]: −70%; DURATION OF IMMOBILITY mean ± s.e.m. [2, 11]: 63.0 ± 11.1 s; DURATION OF IMMOBILITY % change from control [2, 12]: −71%; DURATION OF IMMOBILITY mean ± s.e.m. [2, 12]: 49.5 ± 10.6 s"
"CCC(=O)NC[C@@H]1C[C@H]1c1cccc2c1CCO2 [MA-1, (1R-trans)-N-[[2-(2,3-dihydro-4-benzofuranyl)cyclopropyl]methyl]propanamide]",did not demonstrate activity,did not demonstrate activity,did not demonstrate activity,−41%,124.8 ± 18.8 s,41%,−25%,126.3 ± 26.9 NS s,–,–,–,–,–,"attenuation of shock-induced increase in cerebellar cGMP levels ([3]; rats, electric shock 1 mA 10 s, doses of 0.1-10 mg/kg, dosed 30-60 min prior to foot-shock, no dose-responsiveness): ~50%; DURATION OF IMMOBILITY % change from control [2, 13]: −37%; DURATION OF IMMOBILITY mean ± s.e.m. [2, 13]: 133.0 ± 6.6 s; decrease in immobility time ([2]; 1 mg/kg): 37%; DURATION OF IMMOBILITY % change from control [2, 15]: −14%; DURATION OF IMMOBILITY mean ± s.e.m. [2, 15]: 145.3 ± 26.0 NS s; effects on immobility, swimming, or climbing statistically different from vehicle [4]: did not show effects; effect of pH on aqueous solubility [5]: practically unaffected by pH; solubility ([5]; in 95% ethanol, methanol, acetonitrile, ethyl acetate, isopropanol, polyethylene glycols (PEG-300 and PEG-400)): very soluble or freely soluble; solubility ([5]; in water): only slightly soluble; native pH of a saturated solution in water ([5]; saturated solution in water): 8.5; affinity [6]: high affinity; affinity [7]: high affinity"
"COc1ccc2[nH]cc(CCNC(C)=O)c2c1 [Melatonin, melatonin]",–,–,–,−37%,132.8 ± 16.5 s,–,−40%,101.3 ± 18.8 s,shown activity,−21%,166.8 ± 16.6 s,0%,167.7 ± 10.8 NS s,–
COc1ccc2cccc(CCNC(C)=O)c2c1 [agomelatine],–,–,–,−60%,84.8 ± 8.2 s,60%,−42%,97.8 ± 13.5 s,shown activity,−33%,140.2 ± 19.1 s,+13%,191.0 ± 9.4 NS s,decrease in immobility time ([2]; 50 mg/kg): 33%

# Reference: patent US20090209638A1, “TREATMENT FOR DEPRESSIVE DISORDERS” (priority 2006, published 2009)
